Patent US20090215895A1, “Therapeutic and carrier molecules” (PEPLIN BIOLIPIDS PTY LTD, priority 2004, published 2009)

Legend:
E-selectin = experiment: Adhesion molecule expression on HUVEC (ELISA, mRNA slot blot); format: cell-based, human; conditions: for Suppression of TNF-α-induced E-selectin expression on HUVEC: 60 min pre-treatment
Method: FIG. 13 is a representation showing effect of MP3 (β-oxa-23:4n-6) and 20:4n-6 on time-related changes in TNF-α-induced E-selectin, ICAM-1 and VCAM-1 expression on HUVEC. HUVEC were pre-treated with 20 μmol/l β-oxa-23:4n-6 (closed triangles), 20 μmol/l 20:4n-6 (open squares), or DPC (control) for 60 min and then further incubated with TNF-α (125 U/200 μl medium) for up to 24 hr. The expression of E-selectin, ICAM-1 and VCAM-1 adhesion molecules was determined by ELISA. The results are expressed as % of control and represent the mean±SEM of three separate experiments each performed in triplicate. * p<0.05, **p<0.01, ***p<0.001, for significant differences between pre-treatment with fatty acid and corresponding control at a particular time point (one-way analysis of variance followed by the Dunnett test for multiple comparisons). Inset: The effect of β-oxa-23:4n-6 on TNF-α-induced expression of E-selectin mRNA in HUVEC. HUVEC were pre-incubated with β-oxa-23:4n-6 (20 μmol/l) or DPC (control) in 1 ml of medium at 37° C. for 60 min. After the addition of TNF-α, the cells were further incubated at 37° C. for 2 hr. E-selectin mRNA expression was then determined and the results expressed as relative %. Results are the mean±SEM of three separate experiments each performed in quadruplicate. *p<0.0001, for significant differences between pre-treatment with β-oxa-23:4n-6, and control (two-tailed Student's t-test for unpaired data).
HUVEC were stimulated with TNF, bacterial lipopolysaccharide (LPS) or PMA for 24 hr. Expression of E-selectin, ICAM-1 and VCAM-1 was determined by an enzyme-linked immunosorbent assay (ELISA) or as mRNA using a slot blot technique (Huang et al 1997 supra).

[1] = Delayed type hypersensitivity (DTH) to sheep erythrocytes; format: in vivo, BALB/c mice; conditions: 10 mg/kg intraperitoneally prior to antigen challenge
Method: (§1) FIG. 14 is a representation showing (A) effect of MP3 on in vivo inflammatory response measured as delayed type hypersensitivity (DTH) to sheep erythrocytes and LPS-induced influx of neutrophils and mononuclear cells in the peritoneal cavity in BALB/c mice. In the DTH experiments mice were injected with sheep erythrocytes subcutaneously, challenged with the antigen in the hind foot pad 6 days later and the amount of foot pad swelling measured 48 hr later. One hour prior to challenge mice were given 10 mg/kg body weight of β-oxa fatty acid in 7% w/v, DMSO as vehicle intraperitoneally. […] The data, expressed as % of control, are presented as mean±SEM of 10 and 5 mice for DTH and peritoneal inflammation, respectively. […] The data, expressed as % of control, are presented as mean±SEM of ten mice per group and is representative of two experimental runs. […]
(§2) Effect of MP3 (β-oxa-23:4n-6) on the in vivo inflammatory response was measured as a delayed type hypersensitivity (DTH) reaction and LPS-induced influx of neutrophils and mononuclear cells in the peritoneal cavity in BALB/c mice. For DTH experiments, mice were injected subcutaneously with 100 μl of 10% hematocrit sheep erythrocytes, challenged with the antigen (25 μl of 40%) in the hind foot pad 6 days later and the degree of foot pad swelling measured 48 hr later (Ferrante et al, Clin. & Exp. Immunol. 38:70-76, 1979). […]

[2] = LPS-induced influx of neutrophils and mononuclear cells in the peritoneal cavity; format: in vivo, BALB/c mice; conditions: 40 mg/kg intravenously, 6 hr before LPS
Method: as §1, §2

ERK = experiment: TNF-stimulated MAP kinase activity in HUVEC; format: cell-based, human; conditions: HUVEC pre-treated with the fatty acid
Method: (§3) ERK and p38 were precipitated with anti-ERK2 (C-14, sc-154) and anti-p38 (C-20, sc-535) antibody, respectively (Santa Cruz Biotech) and the activity determined using myelin basic protein as a substrate (Hii et al, 1995 supra, Hii et al, 1998 supra). JNK activity was determined in a solid phase assay using GST c-Jun (residues-1-79) as a substrate (Hii et al, 1995 supra, Hii et al, 1998 supra).

JNK = experiment: TNF-stimulated MAP kinase activity in HUVEC; format: cell-based, human; conditions: HUVEC pre-treated with the fatty acid
Method: as §3

p38 = experiment: TNF-stimulated MAP kinase activity in HUVEC; format: cell-based, human; conditions: HUVEC pre-treated with the fatty acid
Method: as §3

[3] = Tolerability of intravenous MP3; format: in vivo, mice; conditions: 50 mg/kg intravenously, 4 days
Text: In accordance with the present invention, a novel engineered polyunsaturated fatty acid, β-oxa-23:4n-6 (MP3) (FIG. 5) is identified which has the hall-marks of a new class of pharmaceuticals based on polyunsaturated fatty acids and which can be used to prevent and/or treat cardiovascular disease. […] The focus of this embodiment of the subject invention is, therefore, the efficacy of MP3 at suppressing adhesion molecule expression in vivo and the development of atherosclerosis.

Q: With `CCCCC/C=C\C/C=C\C/C=C\C/C=C\CCCCOCC(=O)O` [MP3, β-oxa-23:4n-6] as the compound, how does the “TNF-α-induced expression of E-selectin mRNA” value (E-selectin; 20 μmol/l, 60 min, TNF-α 2 hr) read?
A: substantially depressed

Q: And the “Suppression of TNF-α-induced E-selectin expression on HUVEC” value (E-selectin; 20 μmol/l)?
A: better than docosahexaenoic acid (22:6n-3) at suppressing

Q: What about the “Suppression of TNF-α-induced E-selectin expression on HUVEC” value (E-selectin; 20 μmol/l, listed as β-oxa-23:4n-6) of the same compound?
A: inhibited the expression

Q: And the “Time of cytokine treatment at maximum inhibition of E-selectin expression” value (E-selectin; 20 μmol/l, TNF-α)?
A: 4 h

Q: What about the “Inhibition of LPS and PMA-induced up-regulation of E-selectin” value (E-selectin; HUVEC) of the same compound?
A: inhibited LPS and PMA-induced, up-regulation

Q: And the “Delayed type hypersensitivity reaction (foot pad swelling)” value [1]?
A: inhibited in ability to manifest a delayed type hypersensitivity reaction

Q: And the “LPS-induced mononuclear cell infiltrate (72 hr)” value [2]?
A: inhibition of the mononuclear cell infiltrate after 72 hr

Q: And the “LPS-induced neutrophil influx (24 hr)” value [2]?
A: inhibited the neutrophil influx

Q: What about the “Effect on ability of TNF to stimulate ERK” value (ERK) of the same compound?
A: did not affect

Q: What about the “Effect on ability of TNF to stimulate JNK” value (JNK) of the same compound?
A: did not affect

Q: And the “Effect on ability of TNF to stimulate p38” value (p38)?
A: did not affect

Q: And the “Observable signs of distress” value [3]?
A: did not cause any observable signs of distress
